{"source": "patent US4196205A", "about": "“3-Acetoxymethyl-7-(iminoacetamido)-cephalosporanic acid derivatives” (priority 1976, dated 1980)", "test_in_all_cases": "MIC, dilution in liquid medium", "format_in_all_cases": "cell-based", "key": {"[1]": {"system": "Staphylococcus aureus UC 1 128 Pen-Resistant", "conditions": "Staphylococcus aureus", "outline": "(§1)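 Tube dilution in sterile nutrient broth with increasing compound doses, each tube inoculated with the strain. Incubation 24 to 48 hours at 37° C; MIC (g/ml) read by transillumination.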"}, "[2]": {"system": "Escherichia Coli Resistant Tetracycline ATCC 11 303 = UC 1261", "conditions": "Escherichia coli, read-out: M.I.C.", "outline": "as §1"}, "[3]": {"system": "Escherichia Coli Resistant Gentamicine, Tobramycine R 55 123 D", "conditions": "Escherichia coli", "outline": "as §1"}, "[4]": {"system": "Salmonella typhimurium 420", "conditions": "Salmonella enterica, TYPHIMURIUM", "outline": "as §1"}, "[5]": {"system": "Escherichia Coli Exp. TO26 B6", "conditions": "Escherichia coli", "outline": "as §1"}, "[6]": {"system": "Pseudomonas 3 935 Exp. SG", "conditions": "Pseudomonas, 3935EXP.SG", "outline": "as §1"}, "[7]": {"system": "Escherichia Coli Sensible Tetracycline ATCC 9 637 = 1020", "conditions": "Escherichia coli", "outline": "as §1"}, "[8]": {"system": "Staphylococcus aureus ATCC 5 638 Pen-Sensible = UC 1061", "outline": "as §1"}, "[9]": {"system": "Proteus vulgaris (indol+) A 232", "conditions": "Proteus vulgaris, 24 h", "outline": "as §1"}, "[10]": {"system": "Streptococcus faecalis 5 432", "outline": "as §1"}, "[11]": {"system": "Klebsiella pneumoniae Exp. 52 145", "conditions": "Klebsiella pneumoniae, read-out: M.I.C.", "outline": "as §1"}, "Providencia Du 48": {"system": "Providencia Du 48", "conditions": "Providencia", "outline": "as §1"}, "[12]": {"system": "Staphylococcus aureus Co 15 Resistant Cephalexine", "outline": "as §1"}, "[13]": {"system": "Staphylococcus aureus exp. n° 54 146", "conditions": "Staphylococcus aureus", "outline": "as §1"}, "[14]": {"system": "Streptococcus pyogenes A 561", "conditions": "Streptococcus pyogenes, read-out: M.I.C.", "outline": "as §1"}, "[15]": {"system": "Serratia Resistant Gentamicine 2 532", "outline": "as §1"}, "[16]": {"system": "Bacillus subtilis ATCC 6 633", "conditions": "Bacillus subtilis", "outline": "as §1"}, "[17]": {"system": "Klebsiella pneumoniae 2 536 Resistant Gentamicine", "conditions": "Klebsiella pneumoniae", "outline": "as §1"}}, "note": "Like-named read-outs stand apart in the source and are kept apart here.", "data": [{"smiles": "C=CCO/N=C(\\C(=O)N[C@@H]1C(=O)N2C(C(=O)O)=C(COC(C)=O)CS[C@H]12)c1csc(N)n1", "note": "[Example 9, 3-acetoxymethyl-7-[2-(2-amino-4-thiazolyl)-2-(2-propenyl)oxyiminoacetamido]-ceph-3-eme-4-carboxylic acid]", "values": [{"measurement": "MIC", "setting": "[1]; UC1, 24 h, 24 H", "result": 2, "unit": "µg/mL"}, {"measurement": "MIC", "setting": "[1]; UC1, 48 h, 48 H", "result": 2, "unit": "µg/mL"}, {"measurement": "MIC", "setting": "[2]; 24 h", "result": 0.1, "unit": "µg/mL"}, {"measurement": "MIC", "setting": "[2]; 48 h", "result": 0.1, "unit": "µg/mL"}, {"measurement": "MIC", "setting": "[3]; 24 h", "result": 1, "unit": "µg/mL"}, {"measurement": "MIC", "setting": "[3]; 48 h", "result": 1, "unit": "µg/mL"}, {"measurement": "MIC", "setting": "[4]; 24 h", "result": 1, "unit": "µg/mL"}, {"measurement": "MIC", "setting": "[4]; 48 h, read-out: M.I.C.", "result": 10, "unit": "µg/mL"}, {"measurement": "MIC", "setting": "[5]; 24 h", "result": 1, "unit": "µg/mL"}, {"measurement": "MIC", "setting": "[5]; 48 h", "result": 1, "unit": "µg/mL"}, {"measurement": "MIC", "setting": "[6]; 24 h", "result": 20, "unit": "µg/mL"}, {"measurement": "MIC", "setting": "[6]; 48 h", "result": 20, "unit": "µg/mL"}, {"measurement": "MIC", "setting": "[7]; ATCC9, 24 h, 24 H", "result": 1, "unit": "µg/mL"}, {"measurement": "MIC", "setting": "[7]; ATCC9, 48 h, 48 H", "result": 1, "unit": "µg/mL"}, {"measurement": "MIC", "setting": "[8]; 24 h", "result": 1, "unit": "µg/mL"}, {"measurement": "MIC", "setting": "[8]; 48 h", "result": 2, "unit": "µg/mL"}, {"measurement": "MIC", "setting": "[9]", "result": 2, "unit": "µg/mL"}, {"measurement": "MIC", "setting": "[10]; Enterococcus faecalis, 5432, 24 h, 24 H", "result": 2, "unit": "µg/mL"}, {"measurement": "MIC", "setting": "[10]; Enterococcus faecalis, 5432, 48 h, read-out: M.I.C.", "result": 10, "unit": "µg/mL"}, {"measurement": "MIC", "setting": "[11]; EXP.52145, 24 h, 24 H", "result": 0.05, "unit": "µg/mL"}, {"measurement": "MIC", "setting": "[11]; EXP.52145, 48 h, 48 H", "result": 0.1, "unit": "µg/mL"}, {"measurement": "MIC", "setting": "Providencia Du 48; DU48, 24 h, 24 H", "result": 3, "unit": "µg/mL"}, {"measurement": "MIC", "setting": "Providencia Du 48; DU48, 48 h, 48 H", "result": 5, "unit": "µg/mL"}, {"measurement": "MIC", "setting": "[12]; 24 h, read-out: M.I.C.", "result": 10, "unit": "µg/mL"}, {"measurement": "MIC", "setting": "[12]; 48 h", "result": 20, "unit": "µg/mL"}, {"measurement": "MIC", "setting": "[13]; 24 h", "result": 2, "unit": "µg/mL"}, {"measurement": "MIC", "setting": "[13]; 48 h", "result": 2, "unit": "µg/mL"}, {"measurement": "MIC", "setting": "[14]; A561, 24 h, 24 H", "result": 0.02, "unit": "µg/mL"}, {"measurement": "MIC", "setting": "[14]; A561, 48 h, 48 H", "result": 0.02, "unit": "µg/mL"}, {"measurement": "MIC", "setting": "[15]; 24 h, read-out: M.I.C.", "result": 0.4, "unit": "µg/mL"}, {"measurement": "MIC", "setting": "[15]; 48 h", "result": 1, "unit": "µg/mL"}, {"measurement": "MIC", "setting": "[16]; ATCC6, 24 h, 24 H", "result": 1, "unit": "µg/mL"}, {"measurement": "MIC", "setting": "[16]; ATCC6, 48 h, 48 H", "result": 1, "unit": "µg/mL"}, {"measurement": "MIC", "setting": "[17]; 24 h", "result": 2, "unit": "µg/mL"}, {"measurement": "MIC", "setting": "[17]; 48 h", "result": 5, "unit": "µg/mL"}]}]}
